Experimental data: ChEMBL document CHEMBL1201862, “PubChem BioAssay data set” (2004)
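Cultured in 96-well plates, cells were exposed to test compound for 48 hours across five concentrations. Abbreviation: GI50, concentration required for 50% inhibition of growth.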 Calls of active or inactive are those of the source. Rule as the data show it: active = GI50 up to about 1.1 µM and inactive = higher.

Key:
Assay in all cases: DTP human tumour cell line panel, 48 h
786-0 = system: 786-0
A498 = system: A498
A549 = system: A549
ACHN = system: ACHN
BT-549 = system: BT-549
CAKI-1 = system: CAKI-1
CCRF-CEM = system: CCRF-CEM
COLO 205 = system: COLO 205
DLD-1 = system: DLD-1
DMS-114 = system: DMS-114
DMS-273 = system: DMS-273
DU-145 = system: DU-145
EKVX = system: EKVX
HCC 2998 = system: HCC 2998
HCT-116 = system: HCT-116
HCT-15 = system: HCT-15
HL-60 = system: HL-60
HOP-62 = system: HOP-62
HOP-92 = system: HOP-92
HT-29 = system: HT-29
Hs-578T = system: Hs-578T
IGROV-1 = system: IGROV-1
K562 = system: K562
KM12 = system: KM12
LOX IMVI = system: LOX IMVI
LXFL 529 = system: LXFL 529
M14 = system: M14
M19-MEL = system: M19-MEL
MCF7 = system: MCF7
MDA-MB-231 = system: MDA-MB-231
MDA-MB-435 = system: MDA-MB-435
MDA-N = system: MDA-N
MOLT-4 = system: MOLT-4
Malme-3M = system: Malme-3M
NCI-H226 = system: NCI-H226
NCI-H23 = system: NCI-H23
NCI-H460 = system: NCI-H460
NCI-H522 = system: NCI-H522
OVCAR-3 = system: OVCAR-3
OVCAR-4 = system: OVCAR-4
OVCAR-5 = system: OVCAR-5
OVCAR-8 = system: OVCAR-8
PC-3 = system: PC-3
RPMI-8226 = system: RPMI-8226
RXF 393 = system: RXF 393
RXF 631 = system: RXF 631
SF-268 = system: SF-268
SF-295 = system: SF-295
SF-539 = system: SF-539
SK-MEL-28 = system: SK-MEL-28
SK-MEL-2 = system: SK-MEL-2
SK-MEL-5 = system: SK-MEL-5
SK-OV-3 = system: SK-OV-3
SN12C = system: SN12C
SNB-19 = system: SNB-19
SNB-75 = system: SNB-75
SNB-78 = system: SNB-78
SR = system: SR
SW-620 = system: SW-620
T47D = system: T47D
TK-10 = system: TK-10
U-251 = system: U-251
UACC-257 = system: UACC-257
UACC-62 = system: UACC-62
UO-31 = system: UO-31
XF498 = system: XF498

SMILES: C=C1C(=O)OC2/C=C(\C)C3OC3/C=C(/C(=O)OC)C(OC(C)=O)C(OC(=O)C(C)(O)C(C)OC(C)=O)C12 (stereo unspecified)
- GI50 (786-0): 2220 nM (inactive)
- GI50 (A498): 3240 nM (inactive)
- GI50 (A549): 14600 nM (inactive)
- GI50 (ACHN): 3780 nM (inactive)
- GI50 (BT-549): 1040 nM (active)
- GI50 (CAKI-1): 4360 nM (inactive)
- GI50 (CCRF-CEM): 305 nM (active)
- GI50 (COLO 205): 1290 nM (inactive)
- GI50 (DLD-1): 2390 nM (inactive)
- GI50 (DMS-114): 1150 nM (inactive)
- GI50 (DMS-273): 1570 nM (inactive)
- GI50 (DU-145): > 10000 nM (inactive)
- GI50 (EKVX): 10500 nM (inactive)
- GI50 (HCC 2998): 3830 nM (inactive)
- GI50 (HCT-116): 1270 nM (inactive)
- GI50 (HCT-15): 6240 nM
- GI50 (HL-60): 308 nM (active)
- GI50 (HOP-62): 20800 nM (inactive)
- GI50 (HOP-92): 1900 nM (inactive)
- GI50 (HT-29): 1290 nM (inactive)
- GI50 (Hs-578T): 6210 nM (inactive)
- GI50 (IGROV-1): 1980 nM (inactive)
- GI50 (K562): 741 nM (active)
- GI50 (KM12): 2490 nM (inactive)
- GI50 (LOX IMVI): 1530 nM (inactive)
- GI50 (LXFL 529): 1100 nM (active)
- GI50 (M14): 2390 nM (inactive)
- GI50 (M19-MEL): 2390 nM (inactive)
- GI50 (MCF7): 736 nM (active)
- GI50 (MDA-MB-231): 8930 nM (inactive)
- GI50 (MDA-MB-435): 2030 nM (inactive)
- GI50 (MDA-N): 2690 nM (inactive)
- GI50 (MOLT-4): 647 nM (active)
- GI50 (Malme-3M): 2140 nM (inactive)
- GI50 (NCI-H226): 6890 nM (inactive)
- GI50 (NCI-H23): 2500 nM (inactive)
- GI50 (NCI-H460): 3450 nM (inactive)
- GI50 (NCI-H522): 284 nM (active)
- GI50 (OVCAR-3): 3130 nM (inactive)
- GI50 (OVCAR-4): 3500 nM (inactive)
- GI50 (OVCAR-5): 5580 nM (inactive)
- GI50 (OVCAR-8): 1400 nM (inactive)
- GI50 (PC-3): 3960 nM (inactive)
- GI50 (RPMI-8226): 920 nM (active)
- GI50 (RXF 393): 501 nM (active)
- GI50 (RXF 631): 2550 nM (inactive)
- GI50 (SF-268): 5550 nM (inactive)
- GI50 (SF-295): 9200 nM (inactive)
- GI50 (SF-539): 2110 nM (inactive)
- GI50 (SK-MEL-28): 2230 nM (inactive)
- GI50 (SK-MEL-2): 4590 nM (inactive)
- GI50 (SK-MEL-5): 2500 nM (inactive)
- GI50 (SK-OV-3): 18700 nM (inactive)
- GI50 (SN12C): 2670 nM (inactive)
- GI50 (SNB-19): 14500 nM (inactive)
- GI50 (SNB-75): 2810 nM (inactive)
- GI50 (SNB-78): 2530 nM (inactive)
- GI50 (SR): 652 nM (active)
- GI50 (SW-620): 796 nM (active)
- GI50 (T47D): 6300 nM (inactive)
- GI50 (TK-10): 1830 nM (inactive)
- GI50 (U-251): 3030 nM (inactive)
- GI50 (UACC-257): 679 nM (active)
- GI50 (UACC-62): 1700 nM (inactive)
- GI50 (UO-31): 6520 nM (inactive)
- GI50 (XF498): 1960 nM (inactive)
